In US7838512B2, “DNA damaging agents in combination with tyrosine kinase inhibitors” (Arch Development Corporation, priority 1994, dated 2010):

What was measured:
protein-tyrosine kinase = conditions: compared with erbstatin; cited from earlier work
pp110^gag-fes = conditions: cited from earlier work
p56/p53^lyn [1] = test: Anti-Lyn immune complex kinase assay from irradiated (200 cGy) or H2O2-treated HL-60 cells; format: cell-based, human; conditions: for effect on X-ray-induced p56/p53^lyn activity: HL-60 cells, 200 cGy, harvested at 12 hours
Protocol: HL-60 myeloid leukemia cells were grown in RPMI-1640 medium containing 15% heat-inactivated fetal bovine serum (FBS) supplemented with 100 units/ml penicillin, […], 2 mM L-glutamine, 1 mM sodium pyruvate and 1 mM non-essential amino acids. Cells in logarithmic growth phase were suspended in complete RPMI-1640 medium with 0.5% FBS 18 hours prior to irradiation.
Irradiation was performed at room temperature using a Gammacell 1000 (Atomic Energy of Canada, Ottawa) under aerobic conditions with a ^137Cs source emitting at a fixed dose rate of 13.3 Gy/min as determined by dosimetry.
Cells (2−3×10^7) were washed twice with ice cold phosphate buffered saline (PBS) and lysed in 2 ml of lysis buffer (20 mM Tris, pH 7.4, 150 mM NaCl, 1% NP-40, 1 mM sodium vanadate, 1 mM phenylmethylsulfonyl fluoride, 1 mM DTT, and […] of leupeptin and aprotinin). After incubation on ice for 30 min, insoluble material was removed by centrifugation at 1400 rpm for 10 min at 4° C. Soluble proteins were precleared by incubation with 5 mg/ml rabbit anti-mouse IgG for 1 hour at 4° C. and then addition of protein A sepharose for 30 min.
The supernatants were incubated with 2.5 μl of anti-human Fyn, 2 μl of anti-human Lyn, 3 μl of anti-human Lyk (N-terminal) or 3 μl of anti-Src antibody (UBI, Lake Placid, N.Y.) for 1 hour at 4° C. followed by 30 min with protein A-sepharose. The immune complexes were washed three times with lysis buffer, once with kinase buffer (20 mM HEPES, pH 7.0, 10 mM MnCl2 and 10 mM MgCl2) and resuspended in 30 μl of kinase buffer containing 1 mCi/ml [γ-^32P]ATP (3000 Ci/mmol; NEN, Boston, Mass.). The reaction was incubated for 10 min at 30° C. and terminated by the addition of 2× SDS sample buffer. The proteins were resolved in 10% SDS-polyacrylamide gels, dried and analyzed by autoradiography.
Immune complexes as prepared for autophosphorylation assays were washed three times with lysis buffer and once with kinase buffer. The beads were resuspended in 30 μl of kinase buffer containing 1 mCi/ml [γ-^32p]ATP and 3-5 mg of acid treated enolase (Sigma). The reaction was incubated for 10 min at 30° C. and terminated by the addition of 2× SDS sample buffer. The proteins were resolved by 10% SDS-PAGE. Equal loading of the enolase was determined by staining with Coomassie blue. The gels were then destained and analyzed by autoradiography. Radioactive bands were also excised from the gel and -quantitated by scintillation counting.

p56/p53^lyn [2] = test: Anti-Lyn immune complex kinase assay (autophosphorylation and enolase phosphorylation) from drug-treated HL-60 cells; format: cell-based, human; conditions: for effect of pretreatment on MMC-stimulated p56/p53^lyn activity: 10^−5 M inhibitor 1 h, then MMC 1 h
pp60^v-src = conditions: cited from earlier work
[3] = test system: c-jun and EGR-1 gene expression; conditions: irradiated HL-60 cells; cited from earlier work
pancreatic cancer cell = conditions: in vitro; cited from earlier work
EGF-stimulated receptors = EGF-stimulated receptors (Homo sapiens, UniProt P00533); conditions: intact cells, time and dose dependent; cited from earlier work
Sequence of EGF-stimulated receptors (P00533 25-1210): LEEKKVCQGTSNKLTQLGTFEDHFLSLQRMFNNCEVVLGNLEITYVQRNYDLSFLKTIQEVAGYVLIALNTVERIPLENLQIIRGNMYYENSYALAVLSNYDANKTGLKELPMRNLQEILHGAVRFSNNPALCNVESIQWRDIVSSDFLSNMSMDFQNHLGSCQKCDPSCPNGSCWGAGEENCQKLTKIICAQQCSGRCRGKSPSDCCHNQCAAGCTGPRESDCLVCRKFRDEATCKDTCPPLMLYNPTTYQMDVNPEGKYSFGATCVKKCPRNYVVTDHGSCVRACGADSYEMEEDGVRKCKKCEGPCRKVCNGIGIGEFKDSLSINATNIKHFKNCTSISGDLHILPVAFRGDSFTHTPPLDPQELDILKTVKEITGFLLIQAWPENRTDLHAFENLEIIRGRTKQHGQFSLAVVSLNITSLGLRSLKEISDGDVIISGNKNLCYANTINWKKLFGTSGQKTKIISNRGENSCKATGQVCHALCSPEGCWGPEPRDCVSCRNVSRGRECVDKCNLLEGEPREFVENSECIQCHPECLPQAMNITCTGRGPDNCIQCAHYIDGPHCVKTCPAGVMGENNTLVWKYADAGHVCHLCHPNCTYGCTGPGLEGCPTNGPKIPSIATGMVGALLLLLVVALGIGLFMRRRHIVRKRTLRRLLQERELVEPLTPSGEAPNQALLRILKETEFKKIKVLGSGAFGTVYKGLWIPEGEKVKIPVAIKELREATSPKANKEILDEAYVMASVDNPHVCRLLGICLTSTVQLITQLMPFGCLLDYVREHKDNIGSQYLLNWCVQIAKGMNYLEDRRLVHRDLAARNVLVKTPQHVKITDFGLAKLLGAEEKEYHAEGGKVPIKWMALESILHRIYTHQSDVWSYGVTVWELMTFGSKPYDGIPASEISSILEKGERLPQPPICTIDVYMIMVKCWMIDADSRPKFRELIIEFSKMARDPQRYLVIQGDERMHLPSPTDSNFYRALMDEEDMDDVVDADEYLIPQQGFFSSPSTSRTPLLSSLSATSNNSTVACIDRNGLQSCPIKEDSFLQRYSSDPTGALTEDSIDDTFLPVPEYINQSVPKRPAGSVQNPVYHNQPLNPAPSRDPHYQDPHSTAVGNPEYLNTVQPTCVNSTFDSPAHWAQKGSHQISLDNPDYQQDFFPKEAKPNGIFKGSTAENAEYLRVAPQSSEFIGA

tumor [4] = conditions: nude mice; cited from earlier work
cancer cell = conditions: in vitro; cited from earlier work
tumor [5] = conditions: alone, in vivo; cited from earlier work
p56/p53^lyn [6] = test: p56/p53^lyn activity in U-937 myeloid leukemia cells; format: cell-based
p34^cdc2 [7] = test: Immunoprecipitation of p34^cdc2 and immunoblotting with anti-P-Tyr / anti-cdc2; format: cell-based, human; conditions: HL-60 cells, MMC 1 h
Protocol: (§1) Immunoblot analysis. Immune complexes bound to protein A-sepharose were prepared as for the autophosphorylation assays. Proteins were separated in 10% SDS-polyacrylamide gels and transferred to nitrocellulose paper. The residual binding sites were blocked by incubating the filters in 5% dry milk in PBST (PBS/0.05% Tween-20) for 1 h at room temperature. The blots were subsequently incubated with anti-cdc2 or anti-phosphotyrosine (anti-P-Tyr; MAb 4G10, UBI). After washing twice with PBST, the filters were incubated for 1 h at room temperature with anti-mouse IgG (whole molecule) peroxidase conjugate (Sigma) in 5% milk/PBST. The filters were then washed and the antigen-antibody complexes visualized by the ECL detection system (Amersham, Arlington Heights, Ill.).

p56/p53^lyn [8] = test: MMC added directly to the kinase reaction of anti-Lyn immune complexes from untreated HL-60 cells; format: biochemical, human; conditions: 10^−5 M MMC added to kinase reaction, 15 min
Protocol: FIG. 4A, FIG. 4B and FIG. 4C. MMC-induced p56/p53^lyn activation is sensitive to tyrosine kinase inhibitors and is not a direct effect. […] Anti-Lyn immunoprecipitates were analyzed for phosphorylation of p56/p53^lyn and enolase. […] Lysates from untreated HL-60 cells were immunoprecipitated with anti-Lyn. […] The reaction was analyzed for phosphorylation of p56/p53^lyn and enolase.
The supernatant fraction was incubated with pre-immune rabbit serum, anti-Fyn, anti-Lyn, anti-Src (UBI, Lake Placid, N.Y.) or anti-cdc2 (sc-54, Santa Cruz Biotechnology, Santa Cruz, Calif.) antibodies for 1 h at 4° C. followed by 30 min after addition of protein A-sepharose. The immune complexes were washed three times with lysis buffer and once with kinase buffer (20 mM HEPES, pH 7.0, 10 mM MnCl2 and 10 mM MgCl2) and resuspended in […] of kinase buffer containing 1 mCi/ml [γ-^32P]ATP (3000 Ci/mmol; NEN, Boston, Mass.) with and without 5-8 mg of acid-treated enolase (Sigma). The reaction was incubated for 15 min at 30° C. and terminated by the addition of 2× SDS sample buffer. The proteins were separated in 10% SDS-polyacrylamide gels and analyzed by autoradiography. Radioactive bands were excised from certain gels and quantitated by scintillation counting.

pp60^c-src = test: Anti-Src immune complex kinase assay from MMC-treated HL-60 cells; format: cell-based, human; conditions: 10^−5 M MMC, 1 h
p34^cdc2 [9] = test: Anti-cdc2 immunoprecipitates assayed for phosphorylation of H1 histone; format: cell-based; conditions: MMC-treated cells
p56/p53^lyn and p34^cdc2 = test: Association of p56/p53^lyn with p34^cdc2 (GST-Lyn binding, coimmunoprecipitation); format: cell-based, human; conditions: HL-60 cells, 10^−5 M MMC, 1 h
Protocol: Coimmunoprecipitation. Immunoprecipitations were performed with anti-p34^cdc2 at 5 mg/ml cell lysate. Immune complexes were collected on protein A-Sepharose beads (Pharmacia), washed three times with lysis buffer and twice with kinase buffer, resuspended in kinase buffer and then incubated for 10 min at 30° C. in the presence of 1 mCi/ml [γ-^32P]ATP. One aliquot of the kinase reaction was subjected to SDS-PAGE and autoradiography. The other aliquot was washed in lysis buffer to remove free ATP and then boiled in 20 mM Tris-HCl, pH 8.0 containing 0.5% SDS and 1 mM DTT to disrupt protein-protein interaction. After dilution to 0.1% SDS, a secondary immunoprecipitation was then performed by adding anti-Lyn antibody and protein A-Sepharose beads. The anti-Lyn immunoprecipitates were then subjected to SDS-PAGE and autoradiography.
Fusion protein binding assays. The plasmid encoding a glutathione S-transferase (GST)-Lyn (amino acids 1 to 243) fusion protein was obtained from T. Pawson, Toronto, Canada and transfected into E. coli DH5a (Pleiman et al., 1993). The fusion protein was induced with IPTG, purified by affinity chromatography using glutathione-Sepharose beads (Pharmacia) and equilibrated in lysis buffer. HL-60 cell lysates were incubated with 50 mg immobilized GST or GST-Lyn for 2 h at 4° C. […]

p56/p53^lyn [10] = test: Phosphorylation of cdc2 peptides by anti-Lyn immune complexes; format: cell-based, human; conditions: HL-60 cells, MMC 1 h
Protocol: Immune complexes were also resuspended in […] kinase buffer containing 1 mCi/ml [γ-^32P]ATP and either 100 mM cdc2 peptide (amino acids 7 to 20; […]; SEQ ID NO:1) or 100 mM mutated cdc2 peptide with Phe-15 substituted for Tyr-15 ([…]; SEQ ID NO:2). The reactions were incubated for 15 min at 30° C. and terminated by spotting on P81 phosphocellulose discs (GIBCO/BRL). The discs were washed twice with 1% phosphoric acid and twice with water before analysis by liquid scintillation counting.

p56/p53^lyn [11] = test: Immunoblot of anti-Lyn immunoprecipitates (anti-Lyn, anti-P-Tyr); format: cell-based, human; conditions: HL-60 cells, MMC 1 h versus control
Protocol: as §1

p59^fyn = test: Anti-Fyn immune complex autophosphorylation assay from MMC-treated HL-60 cells; format: cell-based, human; conditions: 10^−5 M MMC, 1 h

## O=C(O)c1cc(N(Cc2ccccc2O)Cc2cc(O)ccc2O)ccc1O [Lavendustin A]
protein-tyrosine kinase
  inhibitory potency relative to erbstatin: about 50 times

## O=c1c(-c2ccc(O)cc2)coc2cc(O)cc(O)c12 [genistein]
pp110^gag-fes
  inhibitory activity against pp110^gag-fes: specific inhibitory activity
p56/p53^lyn [1]; 10 μM inhibitor 1 hour
  effect on X-ray-induced p56/p53^lyn activity: inhibited
p56/p53^lyn [2]
  effect of pretreatment on MMC-stimulated p56/p53^lyn activity: completely blocks
pp60^v-src
  inhibitory activity against pp60^v-src: specific inhibitory activity

## CC(=O)N[C@@H](CS)C(=O)O [NAC, N-acetyl cysteine]
[3]
  effect on induction of c-jun and EGR-1 gene expression: completely blocks
p56/p53^lyn [1]; 30 mM NAC 1 hour
  effect on X-ray-induced p56/p53^lyn activity: little effect

## N#CC(C#N)=Cc1ccc(O)c(O)c1 [AG18]
Pancreatic cancer cell
  pancreatic cancer cell growth: inhibit pancreatic cancer cell growth

## CO[C@H]1[C@@H](OC)C[C@H](C)[C@@H](OC)C2=CC(=O)C=C(NC(=O)/C(C)=C/C=C\[C@H](OC)[C@@H](OC(N)=O)/C(C)=C/[C@@H]1C)C2=O [herbimycin A]
EGF-stimulated receptors
  autophosphorylation of EGF-stimulated receptors: inhibit the autophosphorylation
p56/p53^lyn [1]; 10 μM inhibitor 1 hour
  effect on X-ray-induced p56/p53^lyn activity: inhibited
p56/p53^lyn [2]
  effect of pretreatment on MMC-stimulated p56/p53^lyn activity: completely blocks

## N#C/C(=C\c1cc(Cl)cc(Cl)c1)c1cccnc1 [RG-14620, (Z)-alpha-[(3,5-dichlorophenyl)methylene]-3-pyridylacetonitrile]
Tumor [4]
  tumor growth: suppress
Cancer cell
  cancer cell proliferation: suppress

## N#C/C(=C\c1ccc(O)c(O)c1)C(N)=S [T47]
Pancreatic cancer cell
  pancreatic cancer cell growth: inhibit pancreatic cancer cell growth

## OO [H2O2]
p56/p53^lyn [1]; HL-60 cells treated with 50 mM H2O2
  phosphorylation of p56/p53^lyn or enolase: did not show a detectable increase

## CC(C)(C)c1cc(C=C(C#N)C#N)cc(C(C)(C)C)c1O [AG17]
Pancreatic cancer cell
  pancreatic cancer cell growth: inhibit pancreatic cancer cell growth

## N.N.[Cl][Pt][Cl] [cis-platinum]
p56/p53^lyn [2]; 10^−5 M, 1 h
  p56/p53^lyn kinase activity (phosphorylation of p56/p53^lyn and enolase): stimulation of the p56/p53^lyn kinase

## Cc1c[nH]c2c1[C@@]13C[C@@H]1CN(C(=O)c1cc4cc(NC(=O)c5cc6ccccc6o5)ccc4[nH]1)C3=CC2=O [adozelesin]
p56/p53^lyn [2]; 2×10^−6 M, 1 h
  p56/p53^lyn and enolase phosphorylation: stimulation of p56/p53^lyn and enolase phosphorylation

## COc1ccc(/C=C(\C#N)c2cccnc2)cc1OC [RG-13022]
Tumor [4]
  tumor growth: suppress
Cancer cell
  cancer cell proliferation: suppress

## O=C1NC(=O)c2cc(Nc3ccccc3)c(Nc3ccccc3)cc21 [4,5-Dianilinophthalimide]
Tumor [5]
  antitumor activity: in vivo antitumor activity

## CO[C@@]12[C@H](COC(N)=O)C3=C(C(=O)C(C)=C(N)C3=O)N1C[C@@H]1N[C@@H]12 [MMC, Mitomycin C]
p56/p53^lyn [6]
  p56/p53^lyn activity: increases in p56/p53^lyn activity
p34^cdc2 [7]
  tyrosine phosphorylation of p34^cdc2 (anti-P-Tyr reactivity of anti-cdc2 precipitates): increase in reactivity
p56/p53^lyn [8]
  kinase activity of anti-Lyn immune complexes incubated with MMC: decrease in kinase activity
pp60^c-src
  pp60^c-src activity: decrease
p34^cdc2 [9]
  p34^cdc2 kinase activity (H1 histone phosphorylation): loss of kinase activity
p56/p53^lyn [2]; 10^−5 M MMC, 30 min
  increase in enolase phosphorylation: 4.2 fold
p56/p53^lyn [2]; 10^−5 M MMC, 1 h
  p56/p53^lyn activity (autophosphorylation of anti-Lyn immunoprecipitates): increase
p56/p53^lyn [2]; 10^−5 M MMC, 12 h
  increase in enolase phosphorylation: 4.1 fold
p56/p53^lyn [2]; 10^−6 and 10^−5 M MMC, 1 h
  p56/p53^lyn activity (phosphorylation of p56/p53^lyn and enolase): more pronounced stimulation
p56/p53^lyn [2]; 10^−8 and 10^−7 M MMC, 1 h
  p56/p53^lyn activity (phosphorylation of p56/p53^lyn and enolase): Increases
p56/p53^lyn and p34^cdc2
  interaction between p56/p53^lyn and p34^cdc2: induces an interaction
p56/p53^lyn [10]
  phosphorylation of mutated cdc2 peptide (Tyr-15 to Phe-15) by anti-Lyn complexes: little phosphorylation
p56/p53^lyn [10]; versus control cells, cdc2 peptide amino acids 7 to 20
  stimulation of cdc2 peptide phosphorylation by anti-Lyn immune complexes: ~2 fold
p56/p53^lyn [11]
  tyrosine phosphorylation of p56/p53^lyn (anti-P-Tyr immunoblot): increase in tyrosine phosphorylation
p59^fyn
  autophosphorylation of p59^fyn: decreased
